Results: patent US6878736B1, “Histamine H3 receptor ligands” (James Black Foundation Limited, priority 1998, dated 2005)
Structures can show the parent of a compound that is named as a salt.

Columns and labels:
Histamine H3 receptor [1] = molecular target: T1, Histamine H3 receptor (Cavia porcellus, UniProt Q9JI35); assay: Histamine H3 functional assay, guinea pig ileum (ileal longitudinal muscle, myenteric plexus); set-up: species or system tissue; details: antagonist affinity from rightward shift of R-(α)-methylhistamine E/[A] curves (Schild); typical variance ±0.15 log units; read-out: pKb (Guinea pig ileum) (converted)
Description: • 1. J. Med. Chem 1994, 314. • 2. WO 97/29092 Histamine H3 Functional Assay—Guinea Pig Ileum
The biological activity of the compounds of the examples was measured using the ileal longitudinal muscle, myenteric plexus assay described by Paton and Aboo Zar (J. Physiol. 1968, 194, 13-33). Male Dunkin-Hartley guinea pigs (250-300 g) were employed. Briefly, a 50 cm portion of ileum proximal to the caecum was removed, after discarding the terminal 20 cm. Ileal segments (3 cm) were cleaned by passing Krebs-Henseleit buffer containing 3 μM mepyramine gently through the ileum using a Pasteur pipette (size: 13.8 cm length, 0.65 cm diameter). To avoid unnecessary damage to the tissue, Krebs-Henseleit buffer was passed through the ileal segment, while it was lying horizontally on a petri dish. Therefore, the ileum was not over-distended and the buffer flowed through with ease. Each segment was then passed over a Pasteur pipette and the longitudinal muscle layer and adhering myenteric plexus was teased away using moist cotton wool, by stroking tangentially away from the mesenteric attachment. The tissues were suspended in 20 ml organ baths containing Krebs-Henseleit buffer at 37±1° C. and gassed with […]. The tissues were ligated to two parallel stainless steel wires, situated between two platinum electrodes (0.76 cm length, 0.06 cm diameter). All measurements were recorded isometrically (Grass FTO3 transducer). Following an initial loading tension of 1 g, the tissues were stimulated with electrical pulses at a frequency of 0.1 Hz and a pulse duration of 0.5 msec, as described by Kosterlitz & Watt (Br. J. Pharmacol. 1968, 266276). Initially, the tissues were stimulated at supramaximal (1.3 fold times maximal) voltage for a period of 30 min and then the tissues were washed and re-stimulated. A “sighter dose” of the selective histamine H3-receptor agonist, R-(α)-methylhistamine (0.3 μM) (Arrang et al. Nature, 1987, 117-123), was administered. Upon generation of response, the “sighter dose” was removed from the tissues by “washout” (6 washes over 60 min) and during this period the electrical stimulation was switched off. The tissues were then re-stimulated and allowed to stabilise prior to the addition of drug treatments, which were allocated on a randomised block basis to the organ baths. Following the incubation period, a single cumulative E/[A] curve was obtained. The experimental E/[A] curve data was expressed as the percentage inhibition of the peak height of electrically-stimulated contraction. Antagonist affinity values were calculated from the degree of rightward shift of the R-(α)-methylhistamine E/[A] curves using Schild's methods (Arunlakshana & Schild Br. J. Pharmacol. 1959, 48-58). Typical variance in this assay is ±0.15 log units.

Histamine H3 receptor [2] = molecular target: T1, Histamine H3 receptor; assay: Histamine H3 radioligand binding assay, guinea pig cortex ([3H]-R-α-methylhistamine); details: guinea pig cortex membranes, competition with 1 nM [3H]-R-α-methylhistamine; for Ki: read-out: pKi (Guinea pig cortex) (converted)
Description: The compounds of the invention were also tested in a guinea pig cortex binding assay, as follows:
Histamine H3 Radioligand Binding Assay—Guinea Pig Cortex
Male Dunkin Hartley guinea pigs (200-300 g) were used. The whole brain was removed and immediately placed in ice-cold 20 mM Hepes-NaOH buffer (pH7.4 at 21±3° C.). The cortex was dissected, weighed and homogenised in ice-cold 20 mM Hepes-NaOH buffer (pH7.4 at 21±3° C.) (50 ml/guinea-pig cortex) using a polytron (Kinematica AG; PT-DA 3020/2TS, 3×3 s). The homogenate was centrifuged at 100×g for 5 min and the supernatants pooled and stored at 4° C. The pellets were rehomogenised in fresh ice-cold buffer (80 ml) and recentrifuged (100×g for 5 min). The supernatants were pooled and pellets rehomogenised and recentrifuged (100×g for 5 min). All supernatants were pooled and centrifuged at 39,800×g for 12 min at 4° C. The final pellet was resuspended in 20 mM Hepes-NaOH buffer (pH7.4 at 21±3° C.) to a tissue concentration of 7.5 mg.ml^−1, using a teflon-in-glass homogeniser.
Guinea pig cortex membranes (400 μl) were incubated for 165 min at 21±3° C. in a final volume of 500 μl with 20 mM Hepes-NaOH buffer containing [^3H]-R-α-methylhistamine (50 μl; 1 nM) and competing compound. Total and non-specific binding of [^3H]-R-α-methylhistamine were defined using 50 μl of buffer and 50 μl of 10 μM thioperamide, respectively. The assay was terminated by rapid filtration through Whatman GF/B filters, presoaked (2 hr) in 0.1% polyethyleneimine, using a Brandell Cell Harvester. The filters were washed (3×3 ml) with ice-cold 50 mM Tris-HCl (pH6.9 at 21±3° C.), transferred into scintillation vials, 5 ml liquid scintillation cocktail was added and after 4 hours the bound radioactivity was determined by counting (4 min) in a Beckman liquid scintillation counter.
Data are analysed using GraphPad prism and the general equation for a competition curve with variable Hill slope (nH). [formula] where • X is the log concentration of competing compound, • Y is the binding obtained at each concentration of X, • pIC50 is the concentration of the competitor required to compete for half of the specific binding.
The IC50 is converted to the K1 using the Cheng Prusoff equation, K1=IC50/(1+(L/KD)) where • IC50 is the concentration of competitor required to compete for half the specific binding, • L is the radioligand concentration used, • KD is the equilibrium dissociation constant for the radioligand determined by saturation experiments.

T1 sequence (Q9JI35 whole entry): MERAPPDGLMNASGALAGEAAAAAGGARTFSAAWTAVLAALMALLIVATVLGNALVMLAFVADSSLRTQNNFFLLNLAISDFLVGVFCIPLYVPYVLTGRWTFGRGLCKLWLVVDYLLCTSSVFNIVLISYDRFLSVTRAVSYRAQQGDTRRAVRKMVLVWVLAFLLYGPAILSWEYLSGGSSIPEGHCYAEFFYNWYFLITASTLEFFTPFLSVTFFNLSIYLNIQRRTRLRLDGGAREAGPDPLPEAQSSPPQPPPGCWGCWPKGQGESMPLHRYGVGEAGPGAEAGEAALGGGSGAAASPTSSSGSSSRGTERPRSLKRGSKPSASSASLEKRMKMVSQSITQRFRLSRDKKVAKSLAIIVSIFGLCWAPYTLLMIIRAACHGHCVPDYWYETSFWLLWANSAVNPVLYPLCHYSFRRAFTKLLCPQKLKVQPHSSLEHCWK

Ki (Histamine H3 receptor [2]) [nM] | Compound | also measured
– | N=C(N)N(CCCCCCCCCN1CCCC1)Cc1ccc(Cl)cc1 [Example 80, N-(4-Chlorobenzyl)-N-(9-pyrrolidin-1-yl-nonyl)-guanidine bis-hydrochloride] | Kb (Histamine H3 receptor [1]): 10 nM
1580 | O=S(=O)(NCCC[C@@H]1CCCN1CCCc1ccc(Cl)cc1)NCc1ccc(Cl)cc1 [Example 118] | –
251 | COC(=O)CN(CCC[C@@H]1CCCN1C)S(=O)(=O)NCc1ccc(Cl)cc1 [Example 123, N-(4-Chlorobenyl)-N′-(methoxycarbonylmethyl)-N′-(3-(1-methyl-pyrrolidin-2S-yl)propyl)-sulfamide] | –
1000 | O=S(=O)(NCCN1CCCC1)NCc1ccc(Cl)cc1 [Example 134, N-(4-Chlorobenzyl)-N′-(2-pyrrolidin-1-yl-ethyl)-sulfamide] | –
3160 | CN(C)C(=O)CN(CCC[C@@H]1CCCN1C)S(=O)(=O)NCc1ccc(Cl)cc1 [Example 128, N-(4-Chlorobenzyl)-N′-(dimethylamidomethyl)-N′-(3-(1-methyl-pyrrolidin-2S-yl)propyl)-sulfamide] | –
1580 | CN1CCC[C@H]1CCCNS(=O)(=O)NCc1ccccc1 [Example 108, N-Benzyl-N′-(3-(1-methyl-pyrrolidin-2S-yl)-propyl)-sulfamide] | –
158 | CN1CCN(CCCCNS(=O)(=O)c2ccc3ccccc3c2)CC1 [Example 85, N-(4-(4-Methyl-piperazin-1-yl)-butyl)-2-naphthalenesulfonamide] | –
1260 | [O-][S+](NCCCN1CCCC1)c1ccc2ccccc2c1 (stereo not shown) [Example 87, N-(3-Pyrrolidin-1-yl-propyl)-2-naphthalenesulfinamide] | –
2510 | CN1CCCC1CCCCS(=O)(=O)NCC1CCCCC1 (stereo not drawn) [Example 137, N-Cyclohexyl-methyl-4-(1-methyl-pyrrolidin-2S-yl)-butanesulfonamide] | –
1260 | CN1CCCC1CCCCS(=O)(=O)NCC12CC3CC(CC(C3)C1)C2 (stereo not drawn) [Example 138, N-Adamantan-1-yl-methyl-4-(1-methyl-pyrrolidin-2S-yl)-butanesulfonamide] | –
1260 | CN1CCC[C@H]1CCCN(CCO)S(=O)(=O)NCc1ccc(Cl)cc1 [Example 124, N-(4-Chlorobenzyl)-N′-(2-hydroxyethyl)-N′-(3-(1-methyl-pyrrolidin-2S-yl)propyl)-sulfamide] | –
1580 | CN1CCC[C@H]1CCCNS(=O)(=O)NCCc1ccc(Cl)cc1 [Example 111, N-(2-(4-Chlorophenyl)-ethyl)-N′-(3-(1-methyl-pyrrolidin-2S-yl)-propyl)-sulfamide] | –
2510 | CN(CCN1CCCC1)S(=O)(=O)c1ccc2ccccc2c1 [Example 86, N-(2-Pyrrolidin-1-yl-ethyl)-N-methyl-2-naphthalenesulfonamide] | –
316 | N=C(NCCc1ccc(Cl)cc1)NCCN1CCCC1 [Example 23, N-(2-(4-Chlorophenyl)ethyl)-N′-(2-pyrrolidin-1-yl-ethyl)-guanidine bis-hydrochloride] | –
1580 | CN1CCCC1CCNS(=O)(=O)c1ccc(Cl)cc1 (stereo not shown) [Example 96, N-(2-(1-Methyl-pyrrolidin-2-yl)-ethyl)-4-chlorophenylsulfonamide] | –
200 | CN1CCC[C@@H]1CCCNS(=O)(=O)NCc1ccc(Cl)cc1 [Example 109, N-(4-Chlorobenzyl)-N′-(3-(1-methyl-pyrrolidin-2R-yl)-propyl)-sulfamide] | –

Ki (Histamine H3 receptor [2]) [nM] | Compound | also measured
5010 | CN1CCC[C@H]1CCCN(CC(=O)OCc1ccccc1)S(=O)(=O)NCc1ccc(Cl)cc1 [Example 130, N-(4-Chlorobenzyl)-N′-(benyloxycarbonylmethyl)-N′-(3-(1-methyl-pyrrolidin-2S-yl)propyl)-sulfamide] | –
20 | N=C(NCCCCCN1CCCC1)NCc1ccc(C2CCCCC2)cc1 [Example 57, N-(4-Cyclohexylbenzyl)-N′-(5-pyrrolidin-1-yl-pentyl)-guanidine bis-hydrochloride] | –
1000 | CN1CCC[C@H]1CCCN(CCCN)S(=O)(=O)NCc1ccc(Cl)cc1 [Example 126, N-(4-Chlorobenzyl)-N′-(3-amino-propyl)-N′-(3-(1-methyl-pyrrolidin-2S-yl)propyl)-sulfamide] | –
2510 | CN1CCCC1CCNS(=O)(=O)c1cccc2ccccc12 (stereo not shown) [Example 94, N-(2-(1-Methyl-pyrrolidin-2-yl)-ethyl)-1-naphthalenesulfonamide] | –
794 | CN1CCC[C@H]1CCCN(CC(=O)NCc1ccc(Cl)cc1)S(=O)(=O)NCc1ccc(Cl)cc1 [Example 129, N-(4-Chlorobenzyl)-N′-(4-chlorobenzylamidomethyl)-N′-(3-(1-methyl-pyrrolidin-2S-yl)propyl)-sulfamide] | –
158 | CN1CCCC1CCNC(=N)NCc1ccc(Cl)cc1 (stereo not shown) [Example 27, N-(4-Chlorobenzyl)-N′-(2-(1-methyl-pyrrolidin-2-yl)-ethyl)-guanidine bis-hydrochloride] | –
– | Cl.Cl.N=C(NCCCN1CCCC1)NCC1CCCCC1 [Example 39, N-Cyclohexyl-methyl-N′-(3-pyrrolidin-1-yl-propyl)-guanidine bis-hydrochloride] | pKi (Guinea pig cortex) (Histamine H3 receptor [2]): 7.4
794 | CC(C)CN1CCC[C@H]1CCCNS(=O)(=O)Cc1ccc(Cl)cc1 [Example 143] | –
794 | N=C(NCCCN1CCOCC1)NCc1ccc(Cl)cc1 [Example 15, N-(4-Chlorobenzyl)-N′-(3-morpholin-4-yl-propyl)-guanidine bis-hydrochloride] | –
3160 | CN1CCC(CCCNS(=O)(=O)c2ccc3ccccc3c2)CC1 [Example 93, N-(3-(1-Methyl-piperidin-4-yl)-propyl)-2-naphthalenesulfonamide] | –
79.4 | CN1CCCC1CCCCCNS(=O)(=O)NCc1ccc(Cl)cc1 (stereo not drawn) [Example 117, N-(4-Chlorobenzyl)-N′-(5-(1-methyl-pyrrolidin-2S-yl)-pentyl)-sulfamide] | –
1260 | CN1CCCCC1CCNS(=O)(=O)c1ccc2ccccc2c1 (stereo not shown) [Example 90, N-(2-(1-Methyl-piperidin-2-yl)-ethyl)-2-naphthalenesulfonamide] | –
1580 | Cc1ccc(S(=O)(=O)NCCC2CCCN2C)cc1 (stereo not shown) [Example 95, N-(2-(1-Methyl-pyrrolidin-2-yl)ethyl)4-toluenesulfonamide] | –
1580 | CN1CCC[C@H]1CCNS(=O)(=O)Cc1ccc(Cl)cc1 [Example 97, N-(2-(1-Methyl-pyrrolidin-2S-yl)-ethyl)-(4-chlorophenyl)-methanesulfonamide] | –
2000 | CN1CCCC(CCCNS(=O)(=O)c2ccc3ccccc3c2)C1 (stereo not shown) [Example 92, N-(3-(1-Methyl-piperidin-3-yl)-propyl)-2-naphthalenesulfonamide] | –
